59 sequences from the OligoGym collection can be followed below.

The data set deals with HSD17B13. Conditions: ASO, HepaRG.

After the bases stand the sugars from the 5' end (letter, count) and the backbone: PS all phosphorothioate, else s phosphorothioate and o phosphodiester by linkage. Methylation of C is not given here. e = 2'-O-(2-methoxyethyl) (MOE); k = constrained ethyl (cEt); d = 2'-deoxy (DNA); m = 2'-O-methyl

For the sequence GAAGTTCTGATGTCAG (sugars k3 d10 k3, PS), for the setting “1 µM”, the target mRNA inhibition came out at 0%. “TAAAATAGAGTCGGTC (sugars kkdddddddddkekek, PS)”: for the setting “1 µM”, the target mRNA inhibition stood at 68%.

Sequence TGACAATGGTTGCCAC (sugars k3 d10 k3, PS) displayed a target mRNA inhibition (1 µM) of 40%. On to TAGAACTGTGTTGCTT (sugars k3 d10 k3, PS), for which the target mRNA inhibition is, setting by setting: (0.02 µM) 14%; (0.078 µM) 27%; (0.313 µM) 57%; (1 µM) 78%; (1.25 µM) 78%; (5 µM) 90%.

Turning to CTTGACAATGGTTGCC (sugars k3 d10 k3, PS), the target mRNA inhibition (1 µM) is 58%. The sequence TTTCTAAATTACTCCG (sugars k3 d10 k3, PS) displayed a target mRNA inhibition (1 µM) of 54%.

As for GCAAAGTTAATAGGAC (sugars k3 d10 k3, PS), the target mRNA inhibition (1 µM) worked out at 52%.

For the sequence GATTGAATTCACTATC (sugars k3 d10 k3, PS), under “1 µM”, the target mRNA inhibition was 0%. The same measure, in the same setting: under ATAAGGCCGATTCATG (sugars k3 d10 k3, PS) stands 38%. In the case of CAGTTATTAGAAGTCA (sugars k3 d10 k3, PS), the target mRNA inhibition reads like this: (0.02 µM) 0%; (0.078 µM) 0%; (0.313 µM) 0%; (1 µM) 85%; (1.25 µM) 56%; (5 µM) 88%.

Turning to GCCAAAAATCAGCCAC (sugars k3 d10 k3, PS), the target mRNA inhibition (1 µM) turned out to be 11%.

Consider CAAGGAGTATGACAAC (sugars k3 d10 k3, PS), for which the target mRNA inhibition (1 µM) stood at 6%.

Regarding AGTCAGTATCCCCTCA (sugars k3 d10 k3, PS), the target mRNA inhibition was 6% (0.02 µM); 14% (0.078 µM); 32% (0.313 µM); 82% (1 µM); 70% (1.25 µM); 74% (5 µM).

The sequence AATCACAAGTAAGGTA (sugars k3 d10 k3, PS) yielded a target mRNA inhibition (1 µM) of 52%. Under “1 µM”, TAAAGCAGGCTACTTT (sugars k3 d10 k3, PS) gave a target mRNA inhibition of 9%. Still for that read-out and setting: under TAAGATGTCCAGGCAT (sugars k3 d10 k3, PS) stands 17%; under ATTAGATGGTAAGGAG (sugars k3 d10 k3, PS), 4%; under CTCGCGAGATGATGTT (sugars k3 d10 k3, PS), 40%. On the same count and under the same terms, under “CGATCCTATATACATC (sugars kkdddddddddkekek, PS)” stands 29%; under TGTCCTAGGATGTTGA (sugars k3 d10 k3, PS), 41%; under “CAGTTTTCCTCATGAT (sugars kkdddddddddkekek, PS)”, 59%.

Regarding “TGTTGATATTCTGTGG (sugars k3 d1 m1 d8 k3, PS)”, the target mRNA inhibition (1 µM) was determined as 48%.

For the sequence “GTCTACCTCTAAGTTA (sugars kkdddddddddkekek, PS)”, the target mRNA inhibition (1 µM) is 15%. On the same count and under the same terms, as for TGGTAAGGAGTAGTGG (sugars k3 d10 k3, PS), the figure is 34%; as for CTCTTAGCTGTGCACT (sugars k3 d10 k3, PS), 53%.

As to TATGACAACTGGAGGT (sugars k3 d10 k3, PS), the target mRNA inhibition (1 µM) turned out to be 14%.

Consider CATATGTGAAGAGCTG (sugars k3 d10 k3, PS), for which the target mRNA inhibition (1 µM) stood at 25%. The same measure, in the same setting: as for GGCTACAGATTGGAAT (sugars k3 d10 k3, PS), the figure is 23%. As for “GAGTCGGTCACCTTTC (sugars k3 d9 k3 e1, PS)”, the target mRNA inhibition stood at 0% (0.02 µM); 0% (0.078 µM); 0% (0.313 µM); 74% (1 µM); 51% (1.25 µM); 76% (5 µM). For the sequence GGATAAGAAGAGAGCT (sugars k3 d10 k3, PS), for the setting “1 µM”, the target mRNA inhibition was found to be 46%. The same measure, in the same setting: under GCTGAAACTGCTGATT (sugars k3 d10 k3, PS) stands 38%. Still for that read-out and setting: under “TCGGUCACCTTTCATA (sugars k3 d1 m1 d8 k3, PS)” stands 21%; under TGTCATAAAGGTGGGA (sugars k3 d10 k3, PS), 48%. Same read-out and setting: as for AGTTTTTAAGAGGCAT (sugars k3 d10 k3, PS), the figure is 75%; as for GTTGAGTAGTGTAAGC (sugars k3 d10 k3, PS), 53%; as for AAATTGTCTAAACATC (sugars k3 d10 k3, PS), 24%.

In turn, ACTAGGAAGTGATCCA (sugars k3 d10 k3, PS) registered a target mRNA inhibition (1 µM) of 58%. As for CAAGATTAGTCTTGAT (sugars k3 d10 k3, PS), the target mRNA inhibition (1 µM) worked out at 27%. On the same count and under the same terms, under TATCTATTATGCACTC (sugars k3 d10 k3, PS) stands 48%; under ATCTACATGGATCCAA (sugars k3 d10 k3, PS), 12%.

With “TACTTGAACAGTCTTA (sugars kkdddddddddkekek, PS)”, the target mRNA inhibition (1 µM) stood at 60%.

Turning to AGCTGAGAGTTCTACA (sugars k3 d10 k3, PS), the target mRNA inhibition (1 µM) was 67%. The same measure, in the same setting: under “TGTGGCATGGCTACAG (sugars kkdddddddddkekek, PS)” stands 22%. On the same count and under the same terms, as for CACACCGCGCTTATTA (sugars k3 d10 k3, PS), the figure is 11%.

Turning to ATAACATGGCTGGCAT (sugars k3 d10 k3, PS), where the note is “1 µM”, the target mRNA inhibition is 14%.

Consider AATAGGAGAGTCTTTC (sugars k3 d10 k3, PS), for which the target mRNA inhibition (1 µM) was found to be 47%.

In the case of AGTGGGAGTCGGATTA (sugars k3 d10 k3, PS), the target mRNA inhibition (1 µM) stood at 50%. Same read-out and setting: under “CAGCATCAAGACATTC (sugars k3 d1 m1 d8 k3, PS)” stands 52%. As for “GCATCAAGACATTCTA (sugars k3 d9 k3 e1, PS)”, the target mRNA inhibition came to 0% (0.02 µM); 8% (0.078 µM); 13% (0.313 µM); 84% (1 µM); 31% (1.25 µM); 74% (5 µM). In the case of CCAATACAGGCCATAA (sugars k3 d10 k3, PS), the target mRNA inhibition (1 µM) was found to be 38%. Still for that read-out and setting: as for “TGGGACCAAGGATATA (sugars k3 d1 m1 d8 k3, PS)”, the figure is 51%; as for TTGGTATGGTAAGCCC (sugars k3 d10 k3, PS), 62%; as for “CTGAAATTGATACACC (sugars kkdddddddddkekek, PS)”, 45%. Same read-out and setting: under TTCTATCAACCTGCAC (sugars k3 d10 k3, PS) stands 62%; under “TATTCTGTGGCATGGC (sugars k3 d1 m1 d8 k3, PS)”, 55%. Same read-out and setting: under TCTTAAACCTTCCCTG (sugars k3 d10 k3, PS) stands 21%. In the case of CTTACGACTTCATCTG (sugars k3 d10 k3, PS), the target mRNA inhibition (1 µM) worked out at 38%. Still for that read-out and setting: as for GGCAAGACAGACTGTT (sugars k3 d10 k3, PS), the figure is 75%. Still for that read-out and setting: as for CAATTATATGAGGTCT (sugars k3 d10 k3, PS), the figure is 36%.
